Laboratory results: patent publication US8716530B2, “Facially amphiphilic polyaryl and polyarylalkynyl polymers and oligomers and uses thereof” (The Trustess of the University of Pennsylvania, priority 2004, dated 2014)
≈ marks a conversion by molar mass, not a printed value. Where “and” joins values, the source holds several entries; their conditions need not be identical. Equal values may be shown once. Read-outs that look alike come from different tables or passages of the source.

Assays:
B. subtilis = assay: Modified NCCLS microbroth dilution MIC assay; settings: Bacillus subtilis
human erythrocytes = assay: Hemolysis of human erythrocytes (HC50)
[1] = tested on: Staphylococcus saprophyticus; assay type: cell-based
Klebsiella aerogenes = assay type: cell-based
Enterococcus faecalis [2] = assay type: cell-based
Y. pestis = assay: microbe, parasite or virus in culture; assay type: cell-based; settings: Yersinia pestis, 30 h, read-out: MIC100 Y. pestis (30 hr)
Enterococcus faecalis [3] = assay: MIC100, clinical isolates of hospital-acquired pathogens (Table 7); assay type: cell-based; settings: control strain ATCC 29212
E. coli = assay: MIC100, modified NCCLS microbroth dilution (Table 6); assay type: cell-based; settings: Escherichia coli
Streptococcus gordonii = assay type: cell-based
Enterobacter cloacae = assay type: cell-based
Serratia marcescens = assay type: cell-based
Neisseria sicca = assay type: cell-based
Listeria monocytogenes = assay type: cell-based
B. anthracis [4] = assay: microbe, parasite or virus in culture; assay type: cell-based; settings: Bacillus anthracis
Pseudomonas stuarti = assay type: cell-based
Bacillus cereus = assay type: cell-based
[5] = tested on: S. aureus and methicillin-resistant S. aureus (MRSA); assay: MIC100, modified NCCLS microbroth dilution (Table 6); assay type: cell-based; settings: Staphylococcus aureus
[6] = tested on: Staphylococcus epidermidis; assay type: cell-based
Escherichia coli = assay type: cell-based
S. aureus = assay type: cell-based; settings: S. aureus passaged at 0.5x MIC100; by passage 16 (17 consecutive passages)
F. tularensis = assay: microbe, parasite or virus in culture; assay type: cell-based; settings: Francisella tularensis
B. anthracis [7] = assay: microbe, parasite or virus in culture; assay type: cell-based, Bacillus anthracis
Staphylococcus aureus [8] = assay type: cell-based
Bacillus globigii = assay type: cell-based
Proteus mirabilis = assay type: cell-based
Streptococcus pneumoniae = assay: MIC100, clinical isolates of hospital-acquired pathogens (Table 7); assay type: cell-based
[9] = tested on: Lovenox inhibition of Factor Xa (FXa) activity; assay: Chromogenic FXa assay: antagonism of Lovenox inhibition of Factor Xa; assay type: biochemical; settings: fixed concentration of Lovenox, chromogenic substrate S-2765
Procedure: To assess the potential of the phenylalkynyl oligomers to act as antagonists of the low molecular weight heparins (LMWH), Compound 3 was assayed for its ability to antagonize the inhibition of Factor Xa (FXa) activity by the LMWH Lovenox was determined for Compound 3. Briefly, FXa activity in the presence of Lovenox and inhibitor was measured in a chromogenic assay using reagents purchased from DiaPharma. […] In the assay setup for Schild-plot analysis (KB determination), varying concentrations of Lovenox were incubated with AT for 5 minutes. Different concentrations of inhibitor were added to each row of wells, to construct curves of fixed inhibitor concentration, and lightly shaken and incubated for 20 minutes. FXa was then added and reaction was shaken and incubated for 10 minutes. The substrate (S-2765) was then added to initiate the clotting cascade and the 96-well plate was then shaken and read every 30 seconds for 7 minutes at 405 nm on a ThermoLabsystems Multiskan Spectrum. The single curve Lovenox titration experiments (IC50 determination) consisted of the same procedure, but with a fixed concentration of Lovenox (determined by a titration curve in the absence of inhibitor). The analysis of each curve was performed using GraphPad Prism version 4.00 for Windows.

Streptococcus agalactiae = assay type: cell-based
Staphylococcus aureus [10] = assay: MIC100, control microbial agent, NCCLS guidelines; assay type: cell-based; settings: strain ATCC29213, control organism (Table 5), read-out: MIC100 S. aureus ATCC29213
Bacillus subtilis = assay type: cell-based
Candida albicans = assay: MIC100, clinical isolates of hospital-acquired pathogens (Table 7); assay type: cell-based; settings: one table line per isolate, RPMI synthetic medium, in µg/mL
Pseudomonas aeruginosa = assay type: cell-based

SMILES: NCCc1cc(Br)cc(C#Cc2cccc(C#Cc3cc(Br)cc(CCN)c3)c2)c1 [Compound 3]
- MIC (B. subtilis; read-out: B. subtilis MIC): 1.6 µg/mL (≈ 3.06 µM)
- MIC90 (B. subtilis; read-out: MIC90 B. subtilis): 1.6 µg/mL (≈ 3.06 µM)
- Hemolysis HC50 (human erythrocytes; human erythrocytes, one hour incubation, 50% hemoglobin release, Table 1): 75 µg/mL
- HC50 (human erythrocytes; human erythrocytes, Table 2): 75 µg/mL
- Selectivity HC50/MIC E.coli (human erythrocytes; ratio of HC50 to E. coli MIC): 88.2
- MIC100 Staphylococcus saprophyticus [1]: 0.8 µg/mL (≈ 1.53 µM)
- MIC100 Klebsiella aerogenes (Klebsiella aerogenes): 3.4 µg/mL (≈ 6.51 µM)
- MIC100 Enterococcus faecalis (Enterococcus faecalis [2]): 0.84 µg/mL (≈ 1.61 µM)
- MIC (Y. pestis): 4 µg/mL (≈ 7.66 µM)
- mic (MIC100) Enterococcus faecalis ATCC 29212 (Enterococcus faecalis [3]): 1 µg/mL
- MIC (E. coli; strain ATCC25922, read-out: MIC100 E. coli ATCC25922): 2 µg/mL (≈ 3.83 µM)
- MIC (E. coli; strain OC2530, read-out: MIC100 E. coli OC2530): 0.5 µg/mL (≈ 0.957 µM)
- MIC100 Streptococcus gordonii (Streptococcus gordonii): 1.7 µg/mL (≈ 3.25 µM)
- MIC100 Enterobacter cloacae (Enterobacter cloacae): 1.7 µg/mL (≈ 3.25 µM)
- MIC100 Serratia marcescens (Serratia marcescens): 3.4 µg/mL (≈ 6.51 µM)
- MIC100 Neisseria sicca (Neisseria sicca): 3.4 µg/mL (≈ 6.51 µM)
- MIC100 Listeria monocytogenes (Listeria monocytogenes): 1.7 µg/mL (≈ 3.25 µM)
- MIC (B. anthracis [4]; read-out: MIC100 B. anthracis 127): 1 µg/mL (≈ 1.91 µM)
- MIC (B. anthracis [4]; read-out: MIC100 B. anthracis 1099): 1 µg/mL (≈ 1.91 µM)
- MIC (B. anthracis [4]; read-out: MIC100 B. anthracis 7611R): 2 µg/mL (≈ 3.83 µM)
- MIC (B. anthracis [4]; read-out: MIC100 B. anthracis A3): 1 µg/mL (≈ 1.91 µM)
- MIC (B. anthracis [4]; read-out: MIC100 B. anthracis A19): 1 µg/mL (≈ 1.91 µM)
- MIC (B. anthracis [4]; read-out: MIC100 B. anthracis A58): 1 µg/mL (≈ 1.91 µM)
- MIC (B. anthracis [4]; read-out: MIC100 B. anthracis A60): 1 µg/mL (≈ 1.91 µM)
- MIC (B. anthracis [4]; read-out: MIC100 B. anthracis A73): 1 µg/mL (≈ 1.91 µM)
- MIC (B. anthracis [4]; read-out: MIC100 B. anthracis A74): 2 µg/mL (≈ 3.83 µM)
- MIC (B. anthracis [4]; read-out: MIC100 B. anthracis AC1): 1 µg/mL (≈ 1.91 µM)
- MIC (B. anthracis [4]; read-out: MIC100 B. anthracis RA3R): 1 µg/mL (≈ 1.91 µM)
- MIC (B. anthracis [4]; read-out: MIC100 B. anthracis Vollum): 2 µg/mL (≈ 3.83 µM)
- MIC100 Pseudomonas stuarti (Pseudomonas stuarti): > 6.6 µg/mL
- MIC100 Bacillus cereus (Bacillus cereus): 1.7 µg/mL (≈ 3.25 µM)
- MIC ([5]; ATCC 29213 / MRSA, strain ATCC29213 (Table 6), read-out: MIC100 S. aureus ATCC29213): 0.5 µg/mL (≈ 0.957 µM)
- MIC ([5]; MRSA, methicillin-resistant S. aureus OC2878, read-out: MIC100 MRSA OC2878): 0.5 µg/mL (≈ 0.957 µM)
- MIC100 Staphylococcus epidermidis [6]: 0.8 µg/mL (≈ 1.53 µM)
- MIC100 Escherichia coli 6C4468 (Escherichia coli): 1.7 µg/mL (≈ 3.25 µM)
- MIC100 Escherichia coli CIS (Escherichia coli): 1.7 µg/mL (≈ 3.25 µM)
- MIC100 Escherichia coli D31 (Escherichia coli): 0.84 µg/mL (≈ 1.61 µM)
- increase in MIC on serial passage (S. aureus): No consistent increase in the MIC
- MIC (F. tularensis; read-out: MIC100 F. tularensis 17135): 1 µg/mL (≈ 1.91 µM)
- MIC (F. tularensis; read-out: MIC100 F. tularensis 17137): 1 µg/mL (≈ 1.91 µM)
- MIC (B. anthracis [7]; Bacillus anthracis, 24 h, read-out: MIC100 B. anthracis (24 hr)): 1 µg/mL (≈ 1.91 µM)
- Time course of growth inhibition of Bacillus anthracis (B. anthracis [7]; growth recorded at 2 hour intervals over 24 hours (FIG. 3)): complete inhibition of growth at early and late time points
- MIC100 Staphylococcus aureus (Staphylococcus aureus [8]): 1.7 µg/mL (≈ 3.25 µM)
- MIC100 Bacillus globigii (Bacillus globigii): 3.4 µg/mL (≈ 6.51 µM)
- MIC100 Proteus mirabilis (Proteus mirabilis): > 6.6 µg/mL
- mic (MIC100) Streptococcus pneumoniae (Streptococcus pneumoniae; clinical isolates, no phenotype given, Mueller Hinton+2-5% lysed horse blood, in µg/mL): 2
- mic (MIC100) Streptococcus pneumoniae ATCC 49619 (Streptococcus pneumoniae; control strain ATCC 49619): 2 µg/mL
- mic (MIC100) Streptococcus pneumoniae PEN-R (Streptococcus pneumoniae; penicillin-resistant clinical isolates, Mueller Hinton+2-5% lysed horse blood, in µg/mL): 2 and 1
- IC50 [9]: 5.07 µM
- MIC100 Streptococcus agalactiae (Streptococcus agalactiae): 0.4 µg/mL (≈ 0.766 µM)
- MIC (Staphylococcus aureus [10]): 2 µg/mL (≈ 3.83 µM)
- MIC100 Bacillus subtilis (Bacillus subtilis): 1.7 µg/mL (≈ 3.25 µM)
- mic (MIC100) Candida albicans (Candida albicans): 0.5 and 1
- MIC100 Pseudomonas aeruginosa (Pseudomonas aeruginosa): 3.4 µg/mL (≈ 6.51 µM)
